From ChEMBL document CHEMBL5385913, “First-in-Class Dual EZH2-HSP90 Inhibitor Eliciting Striking Antiglioblastoma Activity In Vitro and In Vivo” (J Med Chem, 2024)
Calls of active or inactive are those of the source. The calls are words filed in the database; no cut-off is given here.

Columns and labels:
[1] = Downregulation of CENPW level in TMZ-resistant patient-derived human GBM cells assessed as fold change at 2 uM by GlioVis analysis (reference value: 2.83); assay type: functional
[2] = Downregulation of CENPM level in TMZ-resistant patient-derived human GBM cells assessed as fold change at 2 uM by GlioVis analysis (reference value: 2.23); assay type: functional
[3] = Downregulation of OIP5 level in TMZ-resistant patient-derived human GBM cells assessed as fold change at 2 uM by GlioVis analysis (reference value: 2.31); assay type: functional
[4] = Downregulation of HJURP level in TMZ-resistant patient-derived human GBM cells assessed as fold change at 2 uM by GlioVis analysis (reference value: 4.74); assay type: functional
[5] = Downregulation of MIS18BP1 level in TMZ-resistant patient-derived human GBM cells assessed as fold change at 2 uM by GlioVis analysis (reference value: 3.87); assay type: functional
[6] = Downregulation of HELLS level in TMZ-resistant patient-derived human GBM cells assessed as fold change at 2 uM by GlioVis analysis (reference value: 4.19); assay type: functional
[7] = Downregulation of CENPO level in TMZ-resistant patient-derived human GBM cells assessed as fold change at 2 uM by GlioVis analysis (reference value: 3.12); assay type: functional
[8] = Downregulation of CENPO level in TMZ-resistant patient-derived human GBM cells assessed as fold change at 2 uM by GlioVis analysis (reference value: 2.67); assay type: functional
[9] = Downregulation of CENPU level in TMZ-resistant patient-derived human GBM cells assessed as fold change at 2 uM by GlioVis analysis (reference value: 3.88); assay type: functional
[10] = Downregulation of CENPK level in TMZ-resistant patient-derived human GBM cells assessed as fold change at 2 uM by GlioVis analysis (reference value: 3.71); assay type: functional
[11] = Downregulation of CENPA level in TMZ-resistant patient-derived human GBM cells assessed as fold change at 2 uM by GlioVis analysis (reference value: 3.64); assay type: functional
[12] = Downregulation of CENPI level in TMZ-resistant patient-derived human GBM cells assessed as fold change at 2 uM by GlioVis analysis (reference value: 3.46); assay type: functional
[13] = Effect on processing DNA double-strand break in TMZ-resistant patient-derived human GBM cells assessed as fold decrease in RBBP8 gene expression at 2 uM (reference value: 4.92); assay type: functional
[14] = Effect on processing DNA double-strand break in TMZ-resistant patient-derived human GBM cells assessed as fold decrease in BLM gene expression at 2 uM (reference value: 3.55); assay type: functional
[15] = Effect on processing DNA double-strand break in TMZ-resistant patient-derived human GBM cells assessed as fold decrease in DNA2 gene expression at 2 uM (reference value: 2.75); assay type: functional
GBM [16] = experiment: Effect on homologous recombination in TMZ-resistant patient-derived human GBM cells assessed as fold decrease in TOP2A gene expression at 2 uM (reference value: 6.78); assay type: functional
GBM [17] = experiment: Effect on homologous recombination in TMZ-resistant patient-derived human GBM cells assessed as fold decrease in RAD21 gene expression at 2 uM (reference value: 5.77); assay type: functional
GBM [18] = experiment: Effect on homologous recombination in TMZ-resistant patient-derived human GBM cells assessed as fold decrease in HDAC10 gene expression at 2 uM (reference value: 0.53); assay type: functional
GBM [19] = experiment: Effect on homologous recombination in TMZ-resistant patient-derived human GBM cells assessed as fold decrease in MSH5 gene expression at 2 uM (reference value: 1.52); assay type: functional
GBM [20] = experiment: Effect on homologous recombination in TMZ-resistant patient-derived human GBM cells assessed as fold decrease in RAD54B gene expression at 2 uM (reference value: 1.74); assay type: functional
GBM [21] = experiment: Effect on homologous recombination in TMZ-resistant patient-derived human GBM cells assessed as fold decrease in BLM gene expression at 2 uM (reference value: 3.55); assay type: functional
GBM [22] = experiment: Effect on homologous recombination in TMZ-resistant patient-derived human GBM cells assessed as fold decrease in MND1 gene expression at 2 uM (reference value: 2.95); assay type: functional
GBM [23] = experiment: Effect on homologous recombination in TMZ-resistant patient-derived human GBM cells assessed as fold decrease in EME1 gene expression at 2 uM (reference value: 2.94); assay type: functional
GBM [24] = experiment: Effect on homologous recombination in TMZ-resistant patient-derived human GBM cells assessed as fold decrease in PSMC3IP gene expression at 2 uM (reference value: 2.71); assay type: functional
GBM [25] = experiment: Effect on homologous recombination in TMZ-resistant patient-derived human GBM cells assessed as fold decrease in FANCM gene expression at 2 uM (reference value: 2.59); assay type: functional
GBM [26] = experiment: Effect on homologous recombination in TMZ-resistant patient-derived human GBM cells assessed as fold decrease in RMI1 gene expression at 2 uM (reference value: 3.44); assay type: functional
GBM [27] = experiment: Induction of ROS production in patient-derived human GBM cells measured after 48 hrs by DHR staining based flow cytometry; assay type: functional, cell-based
GBM [28] = experiment: Induction of ROS production in TMZ-resistant patient-derived human GBM cells measured after 48 hrs by DHR staining based flow cytometry; assay type: functional, cell-based
GBM [29] = experiment: Induction of ROS production in patient-derived human GBM cells assessed as decrease in SOD1 level upto 10 uM measured after 48 hrs by Western blot analysis; assay type: functional, cell-based
GBM [30] = experiment: Induction of ROS production in patient-derived human GBM cells assessed as decrease in GPX1 level upto 10 uM measured after 48 hrs by Western blot analysis; assay type: functional, cell-based
GBM [31] = experiment: Induction of ROS production in TMZ-resistant patient-derived human GBM cells assessed as decrease in SOD1 level upto 10 uM measured after 48 hrs by Western blot analysis; assay type: functional, cell-based
GBM [32] = experiment: Induction of ROS production in TMZ-resistant patient-derived human GBM cells assessed as decrease in GPX1 level upto 10 uM measured after 48 hrs by Western blot analysis; assay type: functional, cell-based
[33] = target: Histone-lysine N-methyltransferase EZH2 (Homo sapiens) (UniProt Q15910); experiment: Inhibition of EZH2 in TMZ-resistant patient-derived human GBM cells upto 10 uM measured after 48 hrs by Western blot analysis; assay type: cell-based
[34] = target: Histone-lysine N-methyltransferase EZH2 (Homo sapiens) (UniProt Q15910); experiment: Inhibition of EZH2 in patient-derived human GBM cells upto 10 uM measured after 48 hrs by Western blot analysis; assay type: cell-based
[35] = target: Histone-lysine N-methyltransferase EZH2 (Homo sapiens) (UniProt Q15910); experiment: Inhibition of EZH2-mediated H3K27 trimethylation in TMZ-resistant patient-derived human GBM cells upto 10 uM measured after 48 hrs by Western blot analysis; assay type: cell-based
[36] = target: Histone-lysine N-methyltransferase EZH2 (Homo sapiens) (UniProt Q15910); experiment: Inhibition of EZH2-mediated H3K27 trimethylation in patient-derived human GBM cells upto 10 uM measured after 48 hrs by Western blot analysis; assay type: cell-based
GBM [37] = experiment: Induction of mitochondrial ROS production in TMZ-resistant patient-derived human GBM cells by MitoSOX staining based analysis; assay type: functional, cell-based
GBM [38] = experiment: Induction of ROS production in TMZ-resistant patient-derived human GBM cells assessed as increase in cleaved caspase-3 level upto 5 uM measured for 48 hrs by Western blot analysis; assay type: functional, cell-based
GBM [39] = experiment: Antitumor activity against TMZ-resistant patient-derived human GBM cells xenografted in NOD.CB17-Prkdcscid/NCrCrl mouse assessed as reduction in tumor growth at 20 mg/kg, ip treated twice per week; assay type: functional, organism-based

Histone-lysine N-methyltransferase EZH2 (Homo sapiens), sequence (Q15910 whole entry, looked up): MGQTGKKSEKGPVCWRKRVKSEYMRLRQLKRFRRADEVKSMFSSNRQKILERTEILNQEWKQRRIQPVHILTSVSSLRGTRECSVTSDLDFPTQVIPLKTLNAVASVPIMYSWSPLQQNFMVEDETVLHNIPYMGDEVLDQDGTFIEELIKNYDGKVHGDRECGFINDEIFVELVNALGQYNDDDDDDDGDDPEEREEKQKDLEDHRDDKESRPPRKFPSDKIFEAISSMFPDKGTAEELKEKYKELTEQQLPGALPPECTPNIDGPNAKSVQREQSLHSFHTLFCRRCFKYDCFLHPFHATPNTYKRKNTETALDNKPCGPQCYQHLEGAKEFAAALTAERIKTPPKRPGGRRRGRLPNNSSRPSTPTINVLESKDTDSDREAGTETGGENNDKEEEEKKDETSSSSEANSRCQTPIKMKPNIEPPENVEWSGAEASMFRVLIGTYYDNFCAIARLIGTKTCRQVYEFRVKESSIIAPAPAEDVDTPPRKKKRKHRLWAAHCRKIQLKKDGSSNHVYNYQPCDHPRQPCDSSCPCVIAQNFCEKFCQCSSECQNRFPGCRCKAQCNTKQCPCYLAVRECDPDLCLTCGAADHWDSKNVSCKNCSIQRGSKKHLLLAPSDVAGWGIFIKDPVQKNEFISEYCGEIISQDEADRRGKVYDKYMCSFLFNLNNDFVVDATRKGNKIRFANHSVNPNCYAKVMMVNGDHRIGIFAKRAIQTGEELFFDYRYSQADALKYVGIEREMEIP

CCN(c1cc(-c2cccc(N(C)C(=O)c3cc(C(C)C)c(O)cc3O)c2)cc(C(=O)NCc2c(C)cc(C)[nH]c2=O)c1C)C1CCOCC1
fold change (FC) [1]: 0.72
fold change (FC) [2]: 0.48
fold change (FC) [3]: 0.66
fold change (FC) [4]: 1.38
fold change (FC) [5]: 2.43
fold change (FC) [6]: 2.37
fold change (FC) [7]: 1.84
fold change (FC) [8]: 1.53
fold change (FC) [9]: 1.46
fold change (FC) [10]: 1.33
fold change (FC) [11]: 0.81
fold change (FC) [12]: 1.14
fold change (FC) [13]: 3.95
fold change (FC) [14]: 0.72
fold change (FC) [15]: 1.33
fold change (FC) (GBM [16]): 2.68
fold change (FC) (GBM [17]): 4.69
fold change (FC) (GBM [18]): 0.17
fold change (FC) (GBM [19]): 0.44
fold change (FC) (GBM [20]): 0.83
fold change (FC) (GBM [21]): 0.72
fold change (FC) (GBM [22]): 0.36
fold change (FC) (GBM [23]): 0.75
fold change (FC) (GBM [24]): 1.17
fold change (FC) (GBM [25]): 1.77
fold change (FC) (GBM [26]): 2.33
Activity (GBM [27]): Active
Activity (GBM [28]): Active
Activity (GBM [29]): Active
Activity (GBM [30]): Active
Activity (GBM [31]): Active
Activity (GBM [32]): Active
inhibition [33]: Active
inhibition [34]: Active
inhibition [35]: Active
inhibition [36]: Active
Activity (GBM [37]): Active
Activity (GBM [38]): Active
Activity (GBM [39]): Active
